Type in all cases: cell-based
In assay [1] the test system is Escherichia coli. Briefly: Agar plate disc-diffusion, antibacterial activity (inhibition zone). The settings on record: nutrient agar, 37° C., 48 hours. On the procedure: (§1) The agar plate disc-diffusion method was applied. […] The discs were then placed onto the surface of agar plates (nutrient agar for bacteria and Sabouraud's dextrose agar for fungi) seeded with the test organism. Each plate contained 15 mL of the agar medium, previously seeded with 0.2 mL of the broth culture of each organism pregrown for 18 hours. The plates were incubated at 37° C. for 48 hours, and 72 hours for fungi. The inhibition zones were measured in millimeters (mm). Discs impregnated with DMSO were used as a control, and its inhibition zone was subtracted from the tested compound actual inhibition zone.

In assay [2] the test system is Pseudomonas aeruginosa. The description is as above. Particulars: nutrient agar, 37° C., 48 hours. On the procedure:
as §1

Assay [3] concerns Staphylococcus aureus. The description is as above. The settings on record: nutrient agar, 37° C., 48 hours. On the procedure: as §1
Assay [4] has as its system Bacillus Cereus. The description is as above. Particulars: nutrient agar, 37° C., 48 hours. As for the experimental part:
The agar plate disc-diffusion method was applied. Sterilized filter papers (6 mm in diameter) were wetted with 10 μL of a solution 4-methoxy-N′-(2-(5-phenyl-1,3,4-oxadiazol-2-ylthio)acetoxy)benzimidamide (3) to be tested, containing 10 mg/mL in DMSO, and the discs were allowed to air dry. The discs were then placed onto the surface of agar plates (nutrient agar for bacteria and Sabouraud's dextrose agar for fungi) seeded with the test organism. Each plate contained 15 mL of the agar medium, previously seeded with 0.2 mL of the broth culture of each organism pregrown for 18 hours. The plates were incubated at 37° C. for 48 hours, and 72 hours for fungi. The inhibition zones were measured in millimeters (mm). Discs impregnated with DMSO were used as a control, and its inhibition zone was subtracted from the tested compound actual inhibition zone.

Assay [5] concerns Chrysosporium keratinophilum. Kind of assay: Agar plate disc-diffusion, antifungal activity (inhibition zone). The settings on record: Sabouraud's dextrose agar, 37° C., 72 hours. On the procedure:
as §1

Assay [6] has as its system Aspergillus flavus. The description is as above. The settings on record: Sabouraud's dextrose agar, 37° C., 72 hours. On the procedure: as §1
The mark [7] stands for this setting: A = concentration of comp. = 10,000 μL.
Setting [8] is: B = concentration of comp. = 30,000 μL.
The mark [9] stands for this setting: C = concentration of comp. = 50,000 μL.

As to `O=C(O)c1cn(C2CC2)c2cc(N3CCNCC3)c(F)cc2c1=O` [Cip., ciprofloxacin], the inhibition zone came to 30 mm in assay [1] (setting [7]); 39 mm in assay [1] (setting [8]); 60 mm in assay [1] (setting [9]); 29 mm in assay [2] (setting [7]); 30 mm in assay [2] (setting [8]); 53 mm in assay [2] (setting [9]). Besides, the inhibition zone is listed as 43 mm in assay [3] (setting [7]); 44 mm in assay [3] (setting [8]); 53 mm in assay [3] (setting [9]); 29 mm in assay [4] (setting [7]); 30 mm in assay [4] (setting [8]); 42 mm in assay [4] (setting [9]). Further, the inhibition zone in assay [5] (setting [7]) is given as 29 mm; in assay [5] (setting [8]), 30 mm; in assay [5] (setting [9]) it was 53 mm; in assay [6] (setting [7]), 29 mm; in assay [6] (setting [8]) it was 30 mm; in assay [6] (setting [9]), 42 mm.
For the compound `COc1ccc(/C(N)=N/OC(=O)CSc2nnc(-c3ccccc3)o2)cc1` [Compound 3, 4-methoxy-N′-(2-(5-phenyl-1,3,4-oxadiazol-2-ylthio)acetoxy)benzimidamide], the inhibition zone in assay [1] (setting [7]) is 26 mm; in assay [1] (setting [8]), 34 mm; in assay [1] (setting [9]), 49 mm; in assay [2] (setting [7]) it was 23 mm; in assay [2] (setting [8]), 28 mm; in assay [2] (setting [9]), 41 mm. Besides, the inhibition zone in assay [3] (setting [7]) was determined as 22 mm; in assay [3] (setting [8]) it was 30 mm; in assay [3] (setting [9]), 45 mm; in assay [4] (setting [7]), 27 mm; in assay [4] (setting [8]), 29 mm; in assay [4] (setting [9]), 41 mm. Moreover, the inhibition zone in assay [5] (setting [7]) amounted to 26 mm; in assay [5] (setting [8]) it was 28 mm; in assay [5] (setting [9]), 41 mm; in assay [6] (setting [7]), 21 mm; in assay [6] (setting [8]) it was 25 mm; in assay [6] (setting [9]), 38 mm.

The values are drawn from patent US11891366B1, “4-methoxy-n′-(2-(5-phenyl-1,3,4-oxadiazol-2-ylthio)acetoxy)benzimidamide as an antimicrobial compound” (KING FAISAL UNIVERSITY, priority 2023, dated 2024).
